In ChEMBL document CHEMBL1122534, “Synthesis of 4-substituted 2H-naphth[1,2-b]-1,4-oxazines, a new class of dopamine agonists” (J Med Chem, 1984):

Molecular target: Dopamine receptor (Rattus norvegicus) (UniProt P25115+P19020+P30729+P18901+P61169)
Assay: ED50 for induction of contralateral turning behavior in 6-hydroxydopamine (6-OHDA) lesioned rats by ip administration.
Type: functional, organism-based

Row | Structure (SMILES) | ED50
1 | c1ccc2c(c1)CC[C@H]1NCCOC21 (some centres not stated) | 30 mg/kg
2 | CCN1CCOC2c3ccccc3CC[C@H]21 (some centres not stated) | 1.7 mg/kg
